Values after ≈ are worked out from the molar mass of the structure shown. Read-outs that look alike come from different tables or passages of the source.
Tests used:
[1] = Solubility of ACP in molten solid lipids; assay type: physicochemical
Method: The solid lipids were screened on the basis of biocompatibility and visual evaluation of the solubility of ACP in the lipids. Solid lipids such as GB (Compritol® 888 ATO), glyceryl di-stearate (Precirol ATO 5), glyceryl trimyristate (Dynasan 114), stearic acid, SP (Kolliwax® S) and cetyl palmitate were selected for solubility studies, as they were reported to be biocompatible. In the solubility studies, approximately 200 mg of each lipid was weighed separately and melted by heating to 5–10 °C above its corresponding melting point using a magnetic stirrer equipped with a temperature controlling program. ACP was added in small amounts to each lipid (in molten state), incrementally, up to a maximum of 100 mg under continuous stirring (150–200 rpm) while maintaining the temperature (5–10 °C above its corresponding melting point) until some amount of ACP was present in undissolved / powder form in the lipid. Further, the lipids in which the drug has similar solubility, the lipid solutions (ACP dissolved in lipid) were maintained at the same temperature for 60 min to observed for any precipitation of the drug.

[2] = Solubility of ACP in surfactant solutions; assay type: physicochemical; conditions: aqueous with cosolvent or surfactant or cyclodextrin
Method: Surfactants are primarily chosen on the basis of two criteria: firstly, the affinity of ACP towards the aqueous solution in the presence of the surfactant; and secondly, their capacity to form a stable emulsion when the solid lipid is combined with the aqueous phase. […] Further, on the basis of the solubility of ACP in various surfactants, separate placebo batches of SLNs were prepared using the selected surfactant(s), in order to assess their ability to stabilize the SLNs by evaluating the particle size via dynamic light scattering.

[3] = cited from earlier work
[4] = cited from earlier work; remark: listed apart in the source
[5] = In vitro dissolution studies, USP type II apparatus; assay type: physicochemical; conditions: pH 6.8, 0.5% w/v SDS, within 2 h
Method: Dissolution studies were performed using USP type II dissolution apparatus under conditions simulating the fluids in different parts of the gastrointestinal tract (200 mL of pH 1.2 ± 0.02; 4.5 ± 0.02 buffer; and 900 mL of pH 6.8 ± 0.02 buffer) and blood/plasma (500 mL of pH 7.4 ± 0.02 buffer). […] The temperature was maintained at 37 ± 2 °C with a constant stirring rate of 75 rpm. At predetermined time intervals, 1000 μL samples were withdrawn from the dissolution media via a syringe and replenished with the same volume of fresh media (to retain the sink condition). The samples were immediately centrifuged at 15,373 × g in an ultracentrifuge. The supernatant was collected, diluted with mobile phase (methanol with 10 mM (pH 3.5) ammonium acetate buffer at a ratio of 52:48), and analysed via an HPLC–UV-based analytical method (mentioned in Sect. 3.2). The dissolution data obtained were contoured into different mathematical models (zero order; first order; and Higuchi square root kinetics) to determine the kinetics of drug release. The best fit model was analysed on the basis of the regression coefficient.

[6] = Saturation solubility of ACP in buffers with 0.5% w/v SDS; assay type: physicochemical; conditions: buffer systems with 0.5% w/v SDS; pH 4.5; 6.8; and 7.4 in the presence of 0.5% w/v SDS
Text: The inherent hydrophobicity of ACP results in a solubility profile that is dependent on pH. […] It is very important to maintain sink condition during the in vitro dissolution study of any drug product. To maintain sink condition in the in vitro dissolution studies of hydrophobic drugs, various strategies can be employed, including, addition of surfactant; maintaining large volumes of dissolution media; addition of co-solvents; and use of a different dissolution apparatus like a flow through cell etc.. Of all the above strategies, addition of surfactants (either ionic or non-ionic) is the most commonly employed strategy. SDS, an anionic surfactant, is used to improve the wettability and saturation solubility of hydrophobic drugs in aqueous media. Researchers have used SDS in the range of 0.2 to 20% w/v to maintain the sink condition in the in vitro dissolution studies of formulations containing hydrophobic molecules. Thus, in order to achieve a sink condition, 0.5% w/v SDS was added in buffer systems having a pH of 4.5 and higher. […] Based on the above criteria, we have determined the minimum volume of pH 4.5, pH 6.8 and pH 7.4 (containing 0.5% w/v SDS) required to dissolve the entire drug dose administered in the formulation to be at least 130 mL.

[7] = design: method as in doi:10.1002/sscp.202400110; conditions: Wistar rats; cited from earlier work

SMILES: CC#CC(=O)N1CCC[C@H]1c1nc(-c2ccc(C(=O)Nc3ccccn3)cc2)c2c(N)nccn12 [ACP, Acalabrutinib]
- solubility of ACP in lipid ([1]; in 200 mg of GB (glyceryl di-behenate)): ~ 40 mg
- solubility of ACP in lipid ([1]; in 200 mg of SP (stearyl palmitate)): > 80 mg
- solubility ([2]; aqueous surfactant solution (Gelucire 44/14), Gelucire 44/14 0.15 % w/v, read-out: ACP solubility): 1.36 µg/mL (≈ 2.92 µM)
- solubility ([2]; aqueous surfactant solution (Gelucire 44/14), Gelucire 44/14 2 % w/v, read-out: ACP solubility): 2.27 µg/mL (≈ 4.88 µM)
- solubility ([2]; aqueous surfactant solution (Gelucire 48/16), Gelucire 48/16 0.15 % w/v, read-out: ACP solubility): 1.18 µg/mL (≈ 2.54 µM)
- solubility ([2]; aqueous surfactant solution (Gelucire 48/16), Gelucire 48/16 2 % w/v, read-out: ACP solubility): 2.96 µg/mL (≈ 6.36 µM)
- solubility ([2]; aqueous surfactant solution (PVP K30), Polyvinyl Pyrrolidone (PVP)- K30 0.15 % w/v, read-out: ACP solubility): 0.748 µg/mL (≈ 1.61 µM)
- solubility ([2]; aqueous surfactant solution (PVP K30), Polyvinyl Pyrrolidone (PVP)- K30 2 % w/v, read-out: ACP solubility): 2.27 µg/mL (≈ 4.88 µM)
- solubility ([2]; aqueous surfactant solution (Tween 80), 1% w/v solution of T80, read-out: solubility of ACP): < 0.1 µg/mL
- solubility ([2]; aqueous surfactant solution (Tween 80), Tween 80 (T80) 0.15 % w/v, read-out: ACP solubility): 0.0523 µg/mL (≈ 0.112 µM)
- solubility ([2]; aqueous surfactant solution (Tween 80), Tween 80 (T80) 2 % w/v, read-out: ACP solubility): 0.194 µg/mL (≈ 0.417 µM)
- solubility ([2]; aqueous surfactant solution (poloxamer 188), 1% w/v solution of P188, read-out: solubility of ACP): < 0.1 µg/mL
- solubility ([2]; aqueous surfactant solution (poloxamer 188), Poloxamer 188 (P188) 0.15 % w/v, read-out: ACP solubility): 0.0075 µg/mL (≈ 0.0161 µM)
- solubility ([2]; aqueous surfactant solution (poloxamer 188), Poloxamer 188 (P188) 2 % w/v, read-out: ACP solubility): 0.0202 µg/mL (≈ 0.0434 µM)
- solubility ([2]; aqueous surfactant solution (poloxamer 407), Poloxamer 407 (P407) 0.15 % w/v, read-out: ACP solubility): 0.209 µg/mL (≈ 0.45 µM)
- solubility ([2]; aqueous surfactant solution (poloxamer 407), Poloxamer 407 (P407) 2 % w/v, read-out: ACP solubility): 1.74 µg/mL (≈ 3.74 µM)
- solubility ([2]; aqueous surfactant solution (polyvinyl alcohol), Polyvinyl Alcohol (PVA) 0.15 % w/v, read-out: ACP solubility): 0.0137 µg/mL (≈ 0.0294 µM)
- solubility ([2]; aqueous surfactant solution (polyvinyl alcohol), Polyvinyl Alcohol (PVA) 2 % w/v, read-out: ACP solubility): 0.109 µg/mL (≈ 0.234 µM)
- solubility of ACP ([3]; 0.01 N HCl (pH = 2)): 3730 µg/mL
- solubility of ACP ([3]; 0.1 N HCl (pH = 1)): 29200 µg/mL
- solubility of ACP ([3]; acetate or citrate buffer (pH = 4.5)): 159 µg/mL
- maximum basic pKa [3]: 5.77
- solubility above pH 6 [3]: practically insoluble
- excreted in faeces [4]: 84%
- excreted in urine [4]: 12%
- unchanged ACP, share of the total amount eliminated [4]: less than 2%
- ACP dissolved [5]: more than 80%
- solubility [6]: ≥ 770 µg/mL
- absolute oral bioavailability [7]: 22.83% ± 5.015%

— publication PMC11685355, “Solid lipid nanoparticles for increased oral bioavailability of acalabrutinib in chronic lymphocytic leukaemia” (Discover Nano, 2024)
